Data on ten molecules can be found in patent US9351986B2, “Calicheamicin derivative-carrier conjugates” (priority 2002, dated 2016).

In one experiment the test system is Raji. The experiment in a line: In vitro growth inhibition of Raji B-cell lymphoma line. The class given is cell-based. The following applies: for IC50: read-out: IC50 of calicheamicin. An excerpt:
(§1) The effect of CMC-544 made by using CMA-676 and CMC-544 processes on the in vitro growth of CD22^+ B-Cell lymphoma cell lines, RL, Daudi, Raji and Ramos, were compared. An isotype-matched calicheamicin conjugate targeted at human CD33 (CMA-676) was used to reflect antigen-non-specific effects of the conjugate. […] CD22-mediated delivery of calicheamicin to the CD22^+ cells was at least 10 times more efficient in killing the target cells than the unconjugated drug itself. […] It is apparent from Table 4 that conjugate made by the CMC-544 conjugation process can generate equivalent cytotoxic effect at lower antibody concentrations than conjugate made by the CMA-676 conjugation process.

A further experiment has as its system RL. The experiment in a line: In vitro growth inhibition of RL B-cell lymphoma line. The settings on record: for IC50: read-out: IC50 of calicheamicin. The class given is cell-based.
Excerpt: as §1

A further experiment relates to RL NHL xenografts. Put plainly: RL NHL xenografts staged to 300-400 mg in nude mice. The class given is in vivo. The settings on record: 160 μg/kg intraperitoneally. The procedure:
Similar studies were carried out using the RL lymphoma model. […] CMC-544 in a dose-dependent manner caused tumors to regress over a 3-week time frame. The minimally effective dose of CMC-544 in the RL lymphoma model was established from statistical analyses of these studies to be 20 μg/kg based on calicheamicin content. There were no deaths in any of these three studies.
The observed anti-tumor efficacy was dose-dependent as expected and there was no difference in the efficacies of either of the two CMC-544 preparations. […] However, it should be emphasized that for each dose of conjugated calicheamicin, the quantity of antibody protein administered in the form of a conjugate was four times higher for CMC-544 made by the CMA-676 process versus that made by the CMC-544 process. Since the calicheamicin content of the targeted conjugate is primarily responsible for causing the anti-tumor effect, it is possible to deliver the required quantity of calicheamicin via the conjugate made by the new procedure using much smaller quantities of the targeting antibody. The increased loading of the conjugate made by the CMC-544 process is, in effect, due to the lack of significant amounts of the low conjugated fraction (LCF).

A further experiment concerns Ramos. Put plainly: In vitro growth inhibition of Ramos B-cell lymphoma line. The class given is cell-based, human. The following applies: read-out: IC50 of calicheamicin.
Excerpt: as §1

A further experiment concerns Daudi. The experiment in a line: In vitro growth inhibition of Daudi B-cell lymphoma line. The class given is cell-based. The following applies: Daudi #1; for IC50: read-out: IC50 of calicheamicin.
Excerpt: as §1

The next experiment concerns large RAMOS lymphoma. The experiment in a line: Large established RAMOS lymphoma xenografts. The class given is in vivo, nude mice. The settings on record: 160 μg/kg ip, days 1, 5 and 9. As for the experimental part: The ability of CMC-544 made by the new procedure to inhibit growth of large established B-cell lymphoma xenografts using both the RAMOS and RL lymphoma models was also investigated. The tumors were allowed to grow and staged to 1.5 or 2 g of tumor mass after which CMC-544 or an isotype-matched negative control conjugate (CMA-676) were administered intraperitoneally at the dose of 160 μg/kg of conjugated calicheamicin keeping the original schedule of dosing on days 1, 5 and 9.
The same schedule of dosing was shown earlier to cause long lasting regression of small staged tumors (see Table 6).

The subject of experiment [1] is Ramos cells. The experiment in a line: Disseminated RAMOS B lymphoma in SCID mice, established model. The class given is in vivo. The procedure: (§2) Male SCID mice (CB17 SCID), 20-25 g, were injected with […] through the tail vein (0.2 ml). […] For the day 3 treatment schedule, mice were dosed on days 3, 7, and 11. For the day 9 treatment schedule, mice were dosed on days 9, 13 and 17. […] Mice were monitored daily for the presence of hind limb paralysis at which time they were killed. Seven to 10 mice per treatment group were used. The group average survival time (±SD), median, minimum, and maximum survival times were all calculated. The difference in survival distribution between groups was determined by using a nonparametric Log-rank test with significance reported at the 0.05 level. The survival curves were constructed using the Kaplan-Meier method.
The initial study examined the effect of two different dosing schedules on survival times of the SCID mice with the disseminated lymphoma. The first study looked at initiating drug dosing 3 days after the tumor cells were injected intravenously (developing model), while the second study delayed drug dosing until 9 days post tumor cell injection (established model). […]

Experiment [2] has as its system Ramos cells. Put plainly: Disseminated RAMOS B lymphoma in SCID mice, developing model. The class given is in vivo. As for the experimental part: as §2
The initial study examined the effect of two different dosing schedules on survival times of the SCID mice with the disseminated lymphoma. The first study looked at initiating drug dosing 3 days after the tumor cells were injected intravenously (developing model), while the second study delayed drug dosing until 9 days post tumor cell injection (established model).

In another experiment the test system is CD22mFc. Put plainly: BIACORE biosensor binding analysis of CMC-544 and G5/44. The following applies: Table 3. As for the experimental part: Biosensor analyses were carried out using a BIACORE™ 2000 (BIAcore AB, Uppsala, Sweden). CD22mFc was covalently immobilized on the N-hydroxysuccinimide-activated carboxymethyl dextran-coated biosensor chip (CM5) using a standard amine-coupling chemistry at a protein density of approximately 2000 resonance units. Samples of CMC-544 or G5/44 were diluted in the HBS buffer (10 mM HEPES, pH 7.4, containing 150 mM NaCl, 3 mM EDTA and 0.005% polysorbate 20 (v/v)) and injected in the concentration range of 1 to 100 nM over the CD22mFc-coated biosensor chip surface at a flow rate of 30 μl/min for 3 min to allow binding. After the binding phase, dissociation of the bound antibody was monitored by washing the chip with the HBS buffer over a 15 minute period. The antigenic surface was regenerated by washing the Biosensor chip with 15 μl of the regeneration buffer (10 mM NaOH and 200 mM NaCl) for 30 seconds, followed by a stabilization time of 2 minutes before the next cycle. Kinetic constants were calculated by nonlinear least square regression analysis using a 1:1 Langmuir binding curve fitting model and BIAevaluation program (version 3.0, BIAcore). The antigen binding of CMC-544 was evaluated by surface plasmon resonance analysis using CD22mFc covalently immobilized on a biosensor chip.
On the technique in general: In SPR one partner is held on a chip, and binding of the other changes the refractive index at the surface.

A further experiment has as its system CD22-mFc. Put plainly: BIACORE affinity of chimeric 5/44 and its variants. The following applies: CDR-H2 mutants of chimeric 5/44. The class given is binding. As for the experimental part:
The activities of the chimeric genes were evaluated following transient transfection into CHO cells and determination of affinity constants by BIACORE™ analysis.
The affinities of chimeric 5/44 or its variants, which have had their glycosylation site or their reactive lysine removed, were investigated using BIA technology for binding to CD22-mFc constructs. All binding measurements were performed in the BIACORE™ 2000 instrument (Pharmacia Biosensor AB, Uppsala, Sweden). The assay was performed by capture of CD22mFc via the immobilized anti-mouse Fc. The antibody was in the soluble phase. Samples, standard, and controls (50 μl) were injected over immobilized anti-mouse Fc followed by antibody in the soluble phase. After each cycle, the surface was regenerated with 50 μl of 40 mM HCl at 30 μl/min. The kinetic analysis was performed using the BIAevaluation 3.1 software (Pharmacia).

The target of another experiment is T1, cell surface CD22 (Homo sapiens, UniProt P20273).
T1 construct: host or cells: Ramos (Burkitt's lymphoma)
Put plainly: Competition assay against mouse 5/44 antibody for binding to Ramos cells. The following applies: grafted variants expressed in CHO cells. From the text:
The vectors encoding grafted variants were co-transfected into CHO cells in a variety of combinations, together with the original chimeric antibody chains. Binding activity was compared in a competition assay, competing the binding of the original mouse 5/44 antibody for binding to Ramos cells (obtained from ATCC, a Burkitt's lymphoma lymphoblast human cell line expressing surface CD22). This assay was considered the best way to compare the grafts in their ability to bind to cell surface CD22.

The mark [3] stands for this setting: Table 8, conjugates 160 μg/kg, rituximab 20 mg/kg ip Q4Dx3 from day 9.
The mark [4] stands for this setting: Table 8, conjugates 160 μg/kg, rituximab 20 mg/kg ip Q4Dx3 from day 3.

Broadly, the IC50 is the concentration that inhibits the measured activity by half.

Substitutions are numbered along the chain they refer to. Like-named read-outs stand apart in the source and are kept apart here.

For `CCN(C(C)=O)[C@H]1CO[C@@H](O[C@H]2[C@H](O[C@H]3C#C/C=C\C#C[C@]4(O)CC(=O)C(NC(=O)OC)=C3/C4=C\CSSC(C)(C)CC(=O)NN)O[C@H](C)[C@@H](NO[C@H]3C[C@H](O)[C@H](SC(=O)c4c(C)c(I)c(O[C@@H]5O[C@@H](C)[C@H](O)[C@@H](OC)[C@H]5O)c(OC)c4OC)[C@@H](C)O3)[C@@H]2O)C[C@@H]1OC` [N-ACETYL GAMMA CALICHEAMICIN DMH, N-Ac gamma calicheamicin DMH, reference compound], the IC50 came to 0.46 nM in the experiment on Raji (Raji #1); 0.49 nM with Raji (Raji #2); 0.226 nM in the experiment with RL (RL #1); 0.27 nM in the experiment with RL (RL #2); 0.7 nM in the experiment with Ramos (Ramos #1); 1 nM in the experiment on Ramos (Ramos #2). Further, the IC50 in the experiment with Daudi amounted to 0.26 nM. Moreover, in the experiment with RL NHL xenografts, the “anti-tumor activity of unconjugated drug” value was “inactive”.

Turning to “CMA-676: isotype-matched control conjugate of hP67.6 (IgG4, anti-CD33) with AcBut linked calicheamicin [reference compound]”, the IC50 of antibody turned out to be 80.00 µg/mL in the experiment with Raji (Raji #1); 117.14 µg/mL with Raji (Raji #2); 17.14 µg/mL with RL (RL #1); 11.43 µg/mL in the experiment on RL (RL #2); 53.89 µg/mL in the experiment with Daudi. Further, the IC50 came to 2.8 nM in the experiment with Raji (Raji #1); 4.1 nM in the experiment on Raji (Raji #2); 0.6 nM in the experiment on RL (RL #1); 0.4 nM in the experiment with RL (RL #2); 1.89 nM in the experiment on Daudi. Moreover, the “effect on tumor growth” value in the experiment with large RAMOS lymphoma is “no effect on the tumor growth”. For the same molecule, the “mice sacrificed before day 15 because of tumor burden” value in the experiment on large RAMOS lymphoma is recorded as “Four out of five”. In the experiment with Ramos cells [1] (160 μg/kg ip Q4Dx3), the “effect on survival times” value is given as “no significant effect on survival times”. In addition, the “Average Survival Time” value with Ramos cells [1] (setting [3]) was determined as 33.7 days; in the experiment on Ramos cells [2] (setting [4]), 32.9 days. In addition, the “Maximum Survival Time” value stood at 42.0 days with Ramos cells [1] (setting [3]) and 36.0 days in the experiment on Ramos cells [2] (setting [4]). In addition, the “Median Survival Time” value in the experiment on Ramos cells [1] (setting [3]) came to 31.0 days; in the experiment with Ramos cells [2] (setting [4]), 34.0 days. Besides, the entries for the “Minimum Survival Time” value with Ramos cells [1] (setting [3]) and with Ramos cells [2] (setting [4]) were 30.0 days and 28.0 days, respectively. In the experiment on Ramos cells [2] (160 μg/kg ip Q4Dx3, p>0.05), the “effect on survival time” value was “did not increase survival time significantly”.

Regarding CMC-544 (21 μg/mg) (CMA-676 procedure), in the experiment on CD22mFc, the “KA” value turned out to be 8.1e+09 M⁻¹, the “Ka” value was found to be 490000 M⁻¹ s⁻¹ and the “Kd” value came to 6.1e-05 s⁻¹.

Consider CMC-544 (87 μg/mg) (CMA-544 procedure), for which, in the experiment with CD22mFc, the “KA” value is 6.6e+09 M⁻¹, the “Ka” value turned out to be 460000 M⁻¹ s⁻¹ and the “Kd” value worked out at 6.9e-05 s⁻¹.

As to “CMC-544 PROCESS CMC-544 LOADING 65 μg/mg: CMC-544 made by the CMC-544 conjugation process”, the IC50 amounted to 0.5 nM in the experiment with Raji (Raji #1); 0.56 nM with Raji (Raji #2); 0.006 nM in the experiment with RL (RL #1); 0.012 nM in the experiment on RL (RL #2); 0.26 nM in the experiment on Ramos (Ramos #2); 0.021 nM with Daudi.

For the molecule “CMC-676 PROCESS CMC-544 LOADING 35 μg/mg: CMC-544 made by the CMA-676 conjugation process”, the IC50 stood at 0.52 nM in the experiment on Raji (Raji #2), 0.03 nM in the experiment on RL (RL #1), 0.04 nM in the experiment on RL (RL #2) and 0.08 nM in the experiment on Daudi.

As to “K60R: chimeric 5/44 with CDR-H2 mutation K60R removing the reactive lysine”, the “effect of the mutation on affinity” value in the experiment on CD22-mFc is on record as “neutral effect on affinity”.

Turning to “N55Q: chimeric 5/44 with CDR-H2 mutation N55Q removing the glycosylation site”, the “effect of the mutation on affinity” value in the experiment on CD22-mFc is reported as “no effect on affinity”.

B1: gH6: CDR-grafted 5/44 heavy chain graft gH6 (SEQ ID NO: 26) (antibody, V domains shown)
VH: EVQLVQSGAEVKKPGASVKVSCKASGYRFTNYWIHWVRQAPGQGLEWIGGINPGNNYATYRRKFQGRATLTADTSTSTVYMELSSLRSEDTAVYYCTREGYGNYGAWFAYWGQGTLVTVSS
modifications: gH6
Take B1: in the experiment with cell surface CD22, the “binding activity in competition with mouse 5/44” value is reported as “did not appear to have affected binding”.

B2: gH7: CDR-grafted 5/44 heavy chain graft gH7 (SEQ ID NO: 27) (antibody, V domains shown)
VH: B1 VH with A68V, L70M
modifications: gH7
Turning to B2, the “binding activity in competition with mouse 5/44” value with cell surface CD22 was “did not appear to have affected binding”.
